Here are results for one compound from patent publication US11357766B2, “Compositions and methods for treating cancer” (Texas Tech University System, priority 2017, dated 2022).

Data set [1] has as its system subcutaneously implanted BxPC3 tumors. Briefly: Pancreatic tumor xenograft model. The class given is in vivo. The note with it: 10 mg/kg oral gavage everyday. As to the method: Briefly, In FIG. 4A 1×10^6 BxPC3 cells in 1:1 mixture of PBS and matrigel were subcutaneously implanted in the right flank of 4-6 week old female athymic nude mice (n=5). […] The treatment was given till day 40. Values are plotted as mean±SEM. FIG. 4B orthotopic tumors were aseptically removed and the tumor size was compared between control and pimavanserin treated group. In FIG. 4C mice weight was recorded once in 10 days. The average weight of the mice is plotted against days. Values are plotted as mean±SEM.
Pancreatic tumor xenograft model. Female athymic nude mice (4-6 week old) were purchased from Harlan Laboratory (Livermore, Calif.). All the experiments were performed under the strict compliance and regulations approved from Institutional Animal Care and Use Committee (IACUC), Texas Tech University Health Sciences Center, Amarillo, Tex. 1×10^6 BxPC3 cells were implanted in right flank of the mice. […] Group I was assigned as control group, which received the vehicle only (PBS). Group II mice received 10 mg/kg Pimavanserin tartrate by oral gavage everyday. Treatment with Pimavanserin was started at day 13. Tumor growth was monitored by measuring the tumor volume twice a week until day 40 using a Vernier caliper as described by the present inventors (11). The study was terminated at day 40 due to tumor burden. The mice were euthanized and the tumors were aseptically removed. A part of tumor was snap frozen for western blotting and the other part was fixed in formalin for immunohistochemistry and TUNEL analysis. Mice weight was monitored once in ten days.
Pimavanserin suppresses the growth of subcutaneously implanted pancreatic tumors. To examine the in-vivo efficacy of pimavanserin and to establish the mechanism of tumor growth inhibition in pancreatic cancer, BxPC3 cells were implanted subcutaneously in female athymic nude mice. Once the tumor volume reached 70 mm^3 in size, experimental group of mice were treated with 10 mg/kg pimavanserin by oral gavage everyday. […]

Data set [2] has as its system orthotopically implanted PANC1-luc tumors. The data set can be described thus: Orthotopic pancreatic tumor model. Format: in vivo. How it is done:
1×10^6 PANC-1 luc cells were surgically implanted on the pancreas of 4-6 week old female athymic nude mice (n=5). Mice were treated with 10 mg/kg pimavanserin tartrate at day 17 till day 69. In FIG. 5A tumor luminescence was measured about twice a week and plotted against days. Values are plotted as mean±SEM. In FIG. 5B orthotopic tumors were aseptically removed and the tumor size was compared between control and pimavanserin tartrate treated group. […] The average weight of the mice is plotted against days. Values are plotted as mean±SEM.
Orthotopic pancreatic tumor model. 4-6 week old female athymic nude mice were used for orthotopic injection. All the experiments were performed under the strict compliance and regulations approved from Institutional Animal Care and Use Committee (IACUC), Texas Tech University Health Sciences Center, Amarillo, Tex. Mice were anesthetized by using isoflorane and a minor incision was made in the left abdomen. Stably transfected luciferase-expressing PANC1 (PANC1-luc) cells were orthotopically-implanted in the pancreas. 1×10^6 exponentially growing PANC1-luc cells in 20 μl PBS suspension were injected into the sub-capsular region on the pancreas using a 30-gauge sterile needle. The peritoneum and skin incisions were closed sequentially with absorbable suture. Buprenorphine was administered as a pain killer to mice at every 8 hours for 2 days. The growth of orthotopically-implanted tumors was monitored by measuring the luminescence by IVIS imaging (Calliper Life Sciences). In order to determine the basal luminescence value, mice were imaged on the same day after injecting luciferin (3 mg/mouse, i.p.). Mice were randomly divided into two groups (control and treatment) on day 17 after orthotopic injection of PANC1 luc cells. Control group received vehicle only whereas treatment group received 10 mg/kg pimavanserin tartrate by oral gavage everyday. The study was terminated at day 69 by humanely euthanizing the mice using CO2 overdose. The mice was dissected and representative mouse from control and treatment groups were imaged for luminescence. The pancreas from control and treatment groups were aseptically excised out and snap frozen for western blot analysis, whereas few pancreas were fixed in formalin for immunohistochemical and TUNEL analysis. Mice weight was monitored once a week.
Pimavanserin inhibits the growth of orthotopic pancreatic tumors. In order to further validate the in-vivo efficacy of pimavanserin, PANC-1 luc cells were orthotopically implanted into the pancreas of athymic nude mice. After 17 days of tumor implantation, mice were treated with 10 mg/kg pimavanserin by oral gavage everyday. […] After terminating the experiment, tumors were removed and weighed. The average weight of pimavanserin treated tumors was 46% less when compared to the tumors excised form control group (FIGS. 5B & 5D). Furthermore, the inventors also compared the luminescence between both the groups in isolated pancreas.

For data set [3], the system named is Akt, STAT3 and sonic hedgehog signaling in AsPC1, BxPC3, PANC1, and MIAPaCa2 cells. The data set can be described thus: Western blot analysis of whole cell lysates. The settings on record: 48 hours. The class given is cell-based, human. How it is done:
Briefly, in FIG. 3A AsPC1 cells, FIG. 3B BxPC3 cells, FIG. 3C PANC1 cells, and FIG. 3D MIAPaCa2 cells, were treated with 5, 7.5 and 10 μM pimavanserin tartrate for 48 hours. Representative blots showing a concentration-dependent effect of pimavamserin tartrate on pAkt(S473), pSTAT3(Y705), c-Myc, Oct-4, SOX-2, NANOG, CD44, GLI1, cleaved caspase3. β-actin was used as a loading control. Figures shown are the representative blots of at least three independent tests.
Western blot analysis. AsPC1, BxPC3, PANC1, and MIAPaCa2 cells were treated with varying concentrations of pimavanserin tartrate for 48 hours. After 48 hours, cells were collected and subjected to PBS wash twice. The whole cell lysates were prepared using 4% (w/v) CHAPS in urea-tris buffer. Protein content in the lysates were estimated using Bradford reagent (Bio-rad, California, USA). 40 μg of protein from whole cell lysates were subjected to SDS-PAGE and the resolved proteins were transferred onto PVDF membrane. The membranes were probed for primary antibodies against pSTAT3(Y705), pAkt(S473), β-catenin, c-Myc, OCT4, SOX-2, NANOG, CD44, GLI1, cleaved caspase-3 and β-actin. All primary antibodies were procured from Cell Signaling Technologies (Danvers, Mass.) except β-actin (Sigma Aldrich, St. Louis, Mo.). Dilution factor was 1:1000 for all the antibodies from Cell Signaling and 1:2000 for β-actin antibody. The membranes were developed as described by the present inventors (16).
Inhibition of Akt, STAT3 and sonic hedgehog signaling by pimavanserin. Since significant growth suppressive effects and apoptosis by pimavanserin treatment were observed, the inventors further elucidated the molecular mechanism by which pimavanserin mediates the above-mentioned effects. The inventors performed western blot analysis using whole cell lysates from AsPC1, BxPC3, PANC1, and MIAPaCa2 cells treated with 0, 5, 7.5 and 10 μM pimavanserin for 48 hours. […] Akt and STAT3 signaling modulates OCT-4, SOX-2, NANOG to activate GLI1, a transcription factor involved in sonic hedgehog signaling (7).
For orientation: A western blot detects proteins with antibodies after separation by electrophoresis.

The mark [4] stands for this setting: 0, 5, 7.5 and 10 μM, all the cell lines tested, concentration dependent.

As to `CC(C)COc1ccc(CNC(=O)N(Cc2ccc(F)cc2)C2CCN(C)CC2)cc1` [pimavanserin, N-(4-fluorophenylmethyl)-N-(1-methylpiperidin-4-yl)-N′-(4-(2-methylpropyloxy)phenylmethyl)carbamide], the “average tumor volume at the day of sacrifice” value in data set [1] (day 40, control group 873.395 mm3) came out at 429.01 mm3. In data set [1] (throughout the study), the “overall weight of mice vs control (general signs of toxicity)” value was “similar”. Moreover, the “suppression of growth of BxPC3 tumors” value in data set [1] (vs control) worked out at 50%. Besides, in data set [2] (10 mg/kg oral gavage everyday), the “overall weight of the mice vs control (general signs of toxicity)” value was “did not reduce” and the “suppression of orthotopic pancreatic tumor growth” value is given as 75%. Moreover, the “total flux (luminescence) at the end of the experiment” value in data set [2] (10 mg/kg oral gavage everyday from day 17, day 69, control 1.45542×10^9 photons/second) is recorded as 3.386×10^8 photons/sec. The “decrease of luminescence vs control group” value in data set [2] (10 mg/kg oral gavage everyday, end of the experiment) was found to be 75%. The “average weight of tumors, less than control group” value in data set [2] (10 mg/kg oral gavage everyday, excised tumors after terminating the experiment) turned out to be 46%. Also, in data set [3] (setting [4]), the “expression of GLI1” value was “significantly inhibited” and the “phosphorylation of STAT3 at Tyr705” value was “significantly inhibited”. Besides, the “cancer stem cell markers OCT4, SOX-2, NANOG and CD44” value in data set [3] is recorded as “remarkable inhibition”. Moreover, the “phosphorylation of Akt at Ser473” value in data set [3] (AsPC1, BxPC3, and MIAPaCa2 cells) is given as “significantly reduced”. Moreover, in data set [3] (all the cell lines tested), the “expression of β-catenin” value is “reduced”. Besides, the “cleavage of caspase 3” value in data set [3] (pancreatic cancer cells, concentration dependent) is listed as “significant cleavage”.
